{"source": "patent US7736625B2", "about": "“Light stabilized in vivo stain composition and method of manufacture” (Zila, Inc., priority 2001, dated 2010)", "test": "light stability of thiazine dye solution exposed to ambient incandescent light", "type": "physicochemical", "conditions": "total metal content less than 0.2 wt. %; initially deep-blue; overnight in the laboratory", "procedure": "This example illustrates the light-instability of a TC product with negligible content of metal ions.\nA sample of the TC product is prepared in accordance with Example 1 of my U.S. Pat. No. 6,086,852, incorporated herein by reference, and further purified by preparative high performance liquid chromatography. The total metal content of this sample is less than 0.2 wt. %.\nAn aliquout of this purified TC product sample is deep-blue in color.", "data": [{"smiles": "Cc1cc2nc3ccc(=[N+](C)C)cc-3sc2cc1N.[Cl-]", "note": "[TC product, tolonium chloride]", "values": [{"measurement": "appearance of the solution after standing overnight exposed to ambient incandescent light", "result": "becomes colorless"}]}]}
